For 26 molecules, pEC50 results are on record in patent US11746100B2 (GLOBAL BLOOD THERAPEUTICS, INC., priority 2020, dated 2023).

The target of this assay is T1, human ferroportin (Homo sapiens, UniProt Q9NP59).
T1 construct: luciferase reporter (read with the Nano-Glo Luciferase Assay System); expressed in transfected cells; host or cells: CHO cells, stably transfected, expression induced with doxycycline
T1 sequence (Q9NP59 1-571): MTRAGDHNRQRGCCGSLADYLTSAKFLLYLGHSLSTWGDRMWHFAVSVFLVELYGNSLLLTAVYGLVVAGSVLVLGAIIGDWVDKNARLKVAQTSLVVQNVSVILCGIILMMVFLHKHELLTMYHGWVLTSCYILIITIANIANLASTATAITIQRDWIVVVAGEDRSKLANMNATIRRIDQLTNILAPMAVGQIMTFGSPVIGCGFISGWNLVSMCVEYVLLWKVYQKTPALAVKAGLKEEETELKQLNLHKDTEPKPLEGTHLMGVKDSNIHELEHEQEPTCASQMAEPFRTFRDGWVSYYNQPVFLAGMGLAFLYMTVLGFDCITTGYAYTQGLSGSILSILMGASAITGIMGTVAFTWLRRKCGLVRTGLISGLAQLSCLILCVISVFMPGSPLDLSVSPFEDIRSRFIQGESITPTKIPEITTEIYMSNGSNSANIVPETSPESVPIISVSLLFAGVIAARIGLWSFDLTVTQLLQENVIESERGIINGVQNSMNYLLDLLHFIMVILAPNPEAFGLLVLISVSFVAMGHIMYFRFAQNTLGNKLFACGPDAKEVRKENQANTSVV
The experiment in a line: Biological in-vitro ferroportin internalization assay (luciferase reporter). Particulars: average pEC50; stably-transfected CHO cell line expressing human ferroportin tagged to a luciferase reporter; 6 h incubation with test compound. The class given is cell-based. The gist of the method:
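Read-out is Nano-Glo luciferase signal after 6 h compound exposure, with average pEC50 derived. Cells are a stable CHO line carrying luciferase-tagged human ferroportin, pre-loaded 24 h with ferric ammonium citrate and doxycycline-induced for 24 h.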
Background: In a reporter assay the amount or activity of a reporter protein is the signal.

Molecule `CC(C)[C@@H](O)COc1ccnc(-c2nc3c(c(N(C)CC(=O)NC(C)(C)C)n2)CCC3)c1` [Compound 387, N-tert-butyl-2-[(2-{4-[(2R)-2-hydroxy-3-methylbutoxy]pyridin-2-yl}-5H,6H,7H-cyclopenta[d]pyrimidin-4-yl)(methyl)amino]acetamide] gave a pEC50 of 8.2.
Next, `CN(CC(=O)NC(C)(C)C)c1nc(-c2cc(OCC3(O)CCC3)ccn2)nc2c1CCC2` [Compound 388, N-tert-butyl-2-[(2-{4-[(1-hydroxycyclobutyl)methoxy]pyridin-2-yl}-5H,6H,7H-cyclopenta[d]pyrimidin-4-yl)(methyl)amino]acetamide]: 8.2.
Then `CC(C)NC(=O)CN(C)c1nc(-c2cc(OCC(C)(C)O)ccn2)nc2c1CCC2` [Compound 389, 2-({2-[4-(2-hydroxy-2-methylpropoxy)pyridin-2-yl]-5H,6H,7H-cyclopenta[d]pyrimidin-4-yl}(methyl)amino)-N-(propan-2-yl)acetamide], with 7.9; and `CCNC(=O)CN(C)c1nc(-c2cc(OCC(C)(C)O)ccn2)nc2c1CCC2` [Compound 390, N-ethyl-2-({2-[4-(2-hydroxy-2-methylpropoxy)pyridin-2-yl]-5H,6H,7H-cyclopenta[d]pyrimidin-4-yl}(methyl)amino)acetamide], with 7.8; and `CN(CC(=O)N1CCC(F)(F)CC1)c1nc(-c2cc(OCC(C)(C)O)ccn2)nc2c1CCC2` [Compound 391, 1-(4,4-difluoropiperidin-1-yl)-2-({2-[4-(2-hydroxy-2-methylpropoxy)pyridin-2-yl]-5H,6H,7H-cyclopenta[d]pyrimidin-4-yl}(methyl)amino)ethan-1-one], with 7.7.
Consider `CCC(C)(CC)NC(=O)CN(C)c1nc(-c2cc(OCCO)ccn2)nc2c1CCC2` [Compound 392, 2-({2-[4-(2-hydroxyethoxy)pyridin-2-yl]-5H,6H,7H-cyclopenta[d]pyrimidin-4-yl}(methyl)amino)-N-(3-methylpentan-3-yl)acetamide], for which the pEC50 stood at 8.3.
Then `CC[C@@H](O)COc1ccnc(-c2nc3c(c(N(C)CC(=O)NC(C)(C)C)n2)CCC3)c1` [Compound 393, N-tert-butyl-2-[(2-{4-[(2R)-2-hydroxybutoxy]pyridin-2-yl}-5H,6H,7H-cyclopenta[d]pyrimidin-4-yl)(methyl)amino]acetamide], with 8.1; and `CC[C@H](O)COc1ccnc(-c2nc3c(c(N(C)CC(=O)NC(C)(C)C)n2)CCC3)c1` [Compound 394, (S)—N-(tert-butyl)-2-((2-(4-(2-hydroxybutoxy)pyridin-2-yl)-6,7-dihydro-5H-cyclopenta[d]pyrimidin-4-yl)(methyl)amino)acetamide], with 8.3; and `CCC(O)(CC)COc1ccnc(-c2nc3c(c(N(C)CC(=O)NC(C)(C)C)n2)CCC3)c1` [Compound 395, N-tert-butyl-2-({2-[4-(2-ethyl-2-hydroxybutoxy)pyridin-2-yl]-5H,6H,7H-cyclopenta[d]pyrimidin-4-yl}(methyl)amino)acetamide], with 8.4.
Turning to `CN(CC(=O)NC(C)(C)C)c1nc(-c2cc(OCC3(O)CCCCC3)ccn2)nc2c1CCC2` [Compound 396, N-tert-butyl-2-[(2-{4-[(1-hydroxycyclohexyl)methoxy]pyridin-2-yl}-5H,6H,7H-cyclopenta[d]pyrimidin-4-yl)(methyl)amino]acetamide], the pEC50 came out at 8.5.
Next, `CN(CC(=O)N[C@@H]1CCC[C@@H]1O)c1nc(-c2cc(OCC(C)(C)O)ccn2)nc2c1CCC2` [Compound 397, 2-({2-[4-(2-hydroxy-2-methylpropoxy)pyridin-2-yl]-5H,6H,7H-cyclopenta[d]pyrimidin-4-yl}(methyl)amino)-N-[(1R,2S)-2-hydroxycyclopentyl]acetamide]: 7.6.
Next, `CN(CC(=O)NC1CC1)c1nc(-c2cc(OCC(C)(C)O)ccn2)nc2c1CCC2` [Compound 398, N-cyclopropyl-2-({2-[4-(2-hydroxy-2-methylpropoxy)pyridin-2-yl]-5H,6H,7H-cyclopenta[d]pyrimidin-4-yl}(methyl)amino)acetamide]: 8.1; `CN(CC(=O)N1CCOCC1)c1nc(-c2cc(OCC(C)(C)O)ccn2)nc2c1CCC2` [Compound 399, 2-({2-[4-(2-hydroxy-2-methylpropoxy)pyridin-2-yl]-5H,6H,7H-cyclopenta[d]pyrimidin-4-yl}(methyl)amino)-1-(morpholin-4-yl)ethan-1-oneide]: 7.5; `CCN(CC)CCOc1ccnc(-c2nc3c(c(N(C)CC(=O)NC(C)(C)C)n2)CCC3)c1` [Compound 400, N-tert-butyl-2-[(2-{4-[2-(diethylamino)ethoxy]pyridin-2-yl}-5H,6H,7H-cyclopenta[d]pyrimidin-4-yl)(methyl)amino]acetamide]: 8.2.
Next, `CN(CC(=O)NC(C)(C)C)c1nc(-c2cc(OCCN3CCCC3)ccn2)nc2c1CCC2` [Compound 401, N-tert-butyl-2-[methyl(2-{4-[2-(pyrrolidin-1-yl)ethoxy]pyridin-2-yl}-5H,6H,7H-cyclopenta[d]pyrimidin-4-yl)amino]acetamide]: 8.3; `C[C@@H](CN(C)C)Oc1ccnc(-c2nc3c(c(N(C)CC(=O)NC(C)(C)C)n2)CCC3)c1` [Compound 402, N-tert-butyl-2-{[2-(4-{[(2S)-1-(dimethylamino)propan-2-yl]oxy}pyridin-2-yl)-5H,6H,7H-cyclopenta[d]pyrimidin-4-yl](methyl)amino}acetamide]: 7.8; `CN(C)C(=O)COc1ccnc(-c2nc3c(c(N(C)CC(=O)NC(C)(C)C)n2)CCC3)c1` [Compound 403, 2-{[2-(4-{[(tert-butylcarbamoyl)methyl](methyl)amino}-5H,6H,7H-cyclopenta[d]pyrimidin-2-yl)pyridin-4-yl]oxy}-N,N-dimethylacetamide]: 7.6.
Take `CN(CC(=O)NC(C)(C)C)c1nc(-c2cc(OCC(C)(C)N(C)C)ccn2)nc2c1CCC2` [Compound 404, N-tert-butyl-2-[(2-{4-[2-(dimethylamino)-2-methylpropoxy]pyridin-2-yl}-5H,6H,7H-cyclopenta[d]pyrimidin-4-yl)(methyl)amino]acetamide]: the pEC50 is 8.
On to `CN(CC(=O)NC(C)(C)C)c1nc(-c2cc(OCC3(O)CCOCC3)ccn2)nc2c1CCC2` [Compound 405, N-tert-butyl-2-[(2-{4-[(4-hydroxyoxan-4-yl)methoxy]pyridin-2-yl}-5H,6H,7H-cyclopenta[d]pyrimidin-4-yl)(methyl)amino]acetamide], for which the pEC50 is 8.3.
Next, `C[C@H](CN(C)C)Oc1ccnc(-c2nc3c(c(N(C)CC(=O)NC(C)(C)C)n2)CCC3)c1` [Compound 406, N-tert-butyl-2-{[2-(4-{[(2R)-1-(dimethylamino)propan-2-yl]oxy}pyridin-2-yl)-5H,6H,7H-cyclopenta[d]pyrimidin-4-yl](methyl)amino}acetamide]: 7.7; `CN(C)CC(C)(C)Oc1ccnc(-c2nc3c(c(N(C)CC(=O)NC(C)(C)C)n2)CCC3)c1` [Compound 407, N-tert-butyl-2-{[2-(4-{[1-(dimethylamino)-2-methylpropan-2-yl]oxy}pyridin-2-yl)-5H,6H,7H-cyclopenta[d]pyrimidin-4-yl](methyl)amino}acetamide]: 6.6; `C[C@H](C(=O)NC(C)(C)C)N(C)c1nc(-c2cc(OCCN(C)C)ccn2)nc2c1CCC2` [Compound 408, (2R)—N-tert-butyl-2-[(2-{4-[2-(dimethylamino)ethoxy]pyridin-2-yl}-5H,6H,7H-cyclopenta[d]pyrimidin-4-yl)(methyl)amino]propanamide]: 8.5.
Then `CC(C)(O)COc1ccnc(-c2nc3c(c(NCC(=O)NC(C)(C)C)n2)CCC3)c1` [Compound 409, N-tert-butyl-2-({2-[4-(2-hydroxy-2-methylpropoxy)pyridin-2-yl]-5H,6H,7H-cyclopenta[d]pyrimidin-4-yl}amino)acetamide], with 7.6; and `CN(C)CCOc1ccnc(-c2nc3c(c(N(C)CC(=O)Nc4cnn(C5CC5)c4)n2)CCC3)c1` [Compound 410, N-(1-cyclopropyl-1H-pyrazol-4-yl)-2-[(2-{4-[2-(dimethylamino)ethoxy]pyridin-2-yl}-5H,6H,7H-cyclopenta[d]pyrimidin-4-yl)(methyl)amino]acetamide], with 7.3; and `CN(CC(=O)NC(C)(C)C)c1nc(-c2cc(OC[C@H]3CCCN3C)ccn2)nc2c1CCC2` [Compound 411, N-tert-butyl-2-{methyl[2-(4-{[(2R)-1-methylpyrrolidin-2-yl]methoxy}pyridin-2-yl)-5H,6H,7H-cyclopenta[d]pyrimidin-4-yl]amino}acetamide], with 8.2.
Then `CN(CC(=O)NC(C)(C)C)c1nc(-c2cc(OC[C@@H]3CCCN3C)ccn2)nc2c1CCC2` [Compound 412, N-tert-butyl-2-{methyl[2-(4-{[(2S)-1-methylpyrrolidin-2-yl]methoxy}pyridin-2-yl)-5H,6H,7H-cyclopenta[d]pyrimidin-4-yl]amino}acetamide], with 8.1.

Usually pEC50 stands for −log10 of the EC50, conventionally taken in molar units. Low readings indicate a large EC50, high ones a small EC50.
